Like-named read-outs stand apart in the source and are kept apart here.
Key:
[1] = system: norovirus (cell-based replicon system); experiment: Cell-based replicon system of norovirus (Example 4)
[2] = target: Norwalk virus 3CL protease (Norovirus, UniProt Q83883); experiment: Recombinant NV protease fluorogenic substrate inhibition assay (Example 1); type: biochemical; conditions: 30 min pre-incubation, 30° C., pH 8.0
Experimental: (§1) After a 30 minute incubation period, 5 μL of 12 μM Edans-[…]-Dabcyl (SEQ ID NO:1) substrate in DMSO was then added and the increase in fluorescence was monitored for 30 minutes at an excitation and emission wavelength of 360 and 460 nm, respectively. Using a HORIBA FluoroMax 4 spectrofluorometer. Hydrolysis curves were linear. The final enzyme and substrate concentrations were 2.5 μM and 300 nM, respectively. […] Furthermore, the nature of the cap was also important (compare, for example, inhibitors A and D).

[3] = target: Norwalk virus 3CL protease (NV3CL protease), recombinant (Norovirus, UniProt Q83883); experiment: Recombinant NV protease FRET inhibition assay (Edans-[…]-Dabcyl substrate), FIG. 4; type: biochemical; conditions: 2.5 μM enzyme, 300 nM Edans-EPDFHLQGPEDLAK-Dabcyl, 30 min incubation, 30° C., pH 8.0
Experimental: as §1

FIPV-1146 [4] = experiment: FIPV-1146 replication in CRFK cells, TCID50 method; type: cell-based, feline coronavirus; conditions: MOI 0.05, mean ± SEM
Experimental: (§2) Crandell Rees feline kidney (CRFK) cells were maintained in minimal essential medium containing 2-5% fetal bovine serum and antibiotics (chlortetracycline [25 μg/ml], penicillin [250 U/ml], and streptomycin [250 μg/ml]). FIPV WSU 79-1146 and FECV WSU 79-1683 strains are the prototypes of serotype II FIPV or FECV, respectively, and were purchased from ATCC (Manassas, Va.).
(§3) The cells were further incubated in the presence of each compound for 1 hr at 37° C. Then […] or FECV-1683 was inoculated to the cells at a multiplicity of infection (MOI) of 0.05 or 5.
(§4) b. TCID50 Method. A standard TCID50 method with the 10-fold dilution of each sample was used for virus titration.

FECV-1683 = FECV-1683 replication in CRFK cells, TCID50 method; type: cell-based, feline coronavirus; conditions: MOI 0.05, mean ± SEM
Experimental: as §2, §3, §4

FIPV-1146 [5] = experiment: Combination treatment of CA074-Me and GC373 on FIPV-1146 replication, MacSynergy II; type: cell-based, feline coronavirus; conditions: CA074-Me alone at 1, FIPV-infected CRFK cells
Experimental: The CRFK cells were incubated with GC373 (0.02˜0.2 μM), CA074-Me (0.5˜5 μM), or the combinations of GC373 (0.02˜0.2 μM) and CA074-Me (0.5˜5 μM) for 1 hr at 37° C. prior to inoculation of FIPV-1146 at an MOI of 0.05. After 24 hrs of incubation, virus replication was assessed with virus titration using the TCID50 method. Drug-drug interactions were analyzed by the three-dimensional model of Prichard and Shipman, using the MacSynergy II software at 95% confidence limits. Theoretical additive interactions were calculated from the dose-response curve for each compound individually, and the calculated additive surface was subtracted from the experimentally determined dose-response surface to give regions of synergistic or antagonistic interactions. The resulting surface appears as horizontal plane at 0% of synergy if the interactions of two compounds are additive. Any peak above or below this plane indicates synergy or antagonism, respectively.

HG23 cells = conditions: human
[6] = system: norovirus (NV replicon-harboring HG23 cells); experiment: NV replicon-harboring cells (HG23), NV genome levels by qRT-PCR (Example 1); type: cell-based, Norwalk virus; conditions: read-out: ED50, effective dose that inhibits 50% of norovirus replication, NV genome levels at 24 hrs post-treatment
[7] = system: murine norovirus-1 (MNV-1); experiment: MNV-1 replication in RAW267.4 cells, TCID50 (Example 1); type: cell-based; conditions: Norwalk virus, MOI 2, TCID50 assay, read-out: ED50, replication of murine norovirus (MNV)
[8] = system: coronavirus proteases (TGEV and SARS-CoV); type: biochemical; conditions: optimized FRET assay
MHV = experiment: Cell culture system, MHV replication in CCL-9.1 cells (Example 3); type: cell-based, mouse hepatitis virus; conditions: at concentrations up to 50 μM or 100 μM
MNV-1 = experiment: Cell culture system, MNV-1 replication in RAW267.4 cells (Example 3); type: cell-based, murine norovirus; conditions: at concentrations up to 50 μM or 100 μM
[9] = system: cells used for virus replication; experiment: Non-specific cytotoxicity in the cells used for virus replication (Example 3); type: cell-based
Experimental: Confluent cells grown in 96-well plates were treated with various concentrations (1 to 500 μM) of each compound for 72 h. Cell cytotoxicity was measured by a CytoTox 96® nonradioactive cytotoxicity assay kit (Promega, Madison, Wis.) and crystal violet staining. The In vitro therapeutic index was calculated by dividing the TD50 by the IC50.

FCV = experiment: Cell culture system, FCV replication in CRFK cells (Example 3); type: cell-based, feline calicivirus; conditions: at concentrations up to 50 μM or 100 μM
[10] = 24 hr post infection, read-out: Inhibition [ED50 (μM)] against FIPV-1146, 24 hrs
[11] = 48 hr post infection, read-out: Inhibition [ED50 (μM)] against FIPV-1146, 48 hrs
[12] = 24 hr post infection, read-out: Inhibition [ED50 (μM)] against FECV-1683, 24 hrs
[13] = 48 hr post infection, read-out: Inhibition [ED50 (μM)] against FECV-1683, 48 hrs

Norwalk virus 3CL protease (NV3CL protease), recombinant, sequence (Q83883 1101-1281): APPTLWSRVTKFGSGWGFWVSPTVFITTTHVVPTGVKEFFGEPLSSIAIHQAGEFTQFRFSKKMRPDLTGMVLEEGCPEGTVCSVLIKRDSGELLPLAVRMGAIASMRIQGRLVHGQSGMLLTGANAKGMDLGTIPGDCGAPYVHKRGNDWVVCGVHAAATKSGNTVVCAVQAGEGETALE
Norwalk virus 3CL protease, sequence (Q83883 1101-1281): as above

CC(C)NC(=O)C(O)[C@H](CC1CCNC1=O)NC(=O)[C@H](Cc1ccccc1)NC(=O)OCc1ccccc1 (stereo partly drawn) [Inhibitor 5h]
anti-norovirus activity in the cell-based replicon system (in words) [1]: noteworthy activity

CCCC[C@H](NC(=O)CNC(=O)OCc1ccccc1)C(=O)N[C@H](C=O)CC1CCNC1=O (stereo partly drawn) [Inhibitor G]
inhibitory activity against Norwalk virus 3CL protease (in words) [2]: sub-micromolar inhibitor | IC50 [3]: 0.87 µM

CC(C)C[C@H](NC(=O)OCc1ccccc1)C(=O)N[C@@H](CC1CCNC1=O)C(=O)c1ncco1 (stereo partly drawn) [Inhibitor 8a]
EC50 ([1]; read-out: ED50 in the cell-based replicon system): 0.9 µM

CCOC(=O)[C@H]1O[C@@H]1C(=O)N[C@@H](CC(C)C)C(=O)NCCC(C)C (relative stereo) [Inhibitor E64d, (2S,3S)-trans-epoxysuccinyl-L-leucylamido-3-methylbutane ethyl ester, reference compound]
EC50 (FIPV-1146 [4]; [10]): 1.45 ± 0.49 µM | EC50 (FIPV-1146 [4]; [11]): > 10 µM | EC50 (FECV-1683; [12]): 2.3 ± 0.28 µM | EC50 (FECV-1683; [13]): > 10 µM

CC(C)C[C@H](NC(=O)N1CCOCC1)C(=O)N[C@H](C=O)CC1CCNC1=O (stereo partly drawn) [Inhibitor A]
IC50 [3]: 7.2 µM

CCC(C)[C@H](NC(=O)CNC(=O)OCc1ccccc1)C(=O)N[C@H](C=O)CC1CCNC1=O (stereo partly drawn) [Inhibitor I]
inhibitory activity against Norwalk virus 3CL protease (in words) [2]: detrimental to inhibitory activity

CC(C)C[C@H](NC(=O)OCc1ccccc1)C(=O)N[C@@H](CC1CCNC1=O)C(O)C(=O)NC(C)C (stereo partly drawn) [Inhibitor 5a]
anti-norovirus activity in the cell-based replicon system (in words) [1]: noteworthy activity

CC(C)C[C@H](NC(=O)OCc1ccccc1)C(=O)N[C@@H](CC1CCNC1=O)C(O)c1nccs1 (stereo partly drawn) [Inhibitor 7b]
anti-norovirus activity in the cell-based replicon system (in words) [1]: noteworthy activity

CCCNC(=O)[C@H]1O[C@@H]1C(=O)N[C@H](C(=O)N1CCC[C@H]1C(=O)OC)[C@@H](C)CC (relative stereo) [CA074-Me, L-3-trans-((propylcarbamyl)oxirane-2-Carbonyl)-L-isoleucyl-L-proline methyl ester, reference compound]
EC50 (FIPV-1146 [4]; [10]): 2.5 ± 1.4 µM | EC50 (FIPV-1146 [4]; [11]): > 10 µM | EC50 (FECV-1683; [12]): 4 ± 0.71 µM | EC50 (FECV-1683; [13]): > 10 µM | reduction of virus titers (FIPV-1146 [5]): 0.5 log10

CC(C)C[C@H](NC(=O)CNC(=O)OCc1ccccc1)C(=O)N[C@H](C=O)CC1CCNC1=O (stereo partly drawn) [Inhibitor E]
TD50, median toxic dose (HG23 cells): > 320 µM | inhibitory activity against Norwalk virus 3CL protease (in words) [2]: improved potency, albeit not dramatically | EC50 [6]: 7.8 µM | EC50 [7]: 20.3 µM | IC50 [3]: 1.45 µM

CCOC(=O)/C=C/[C@H](C[C@@H]1CCNC1=O)NC(=O)[C@@H](CC(=O)[C@@H](NC(=O)c1cc(C)on1)C(C)C)Cc1ccc(F)cc1 [Rupintrivir]
activity against the coronavirus proteases compared to GC373 and GC376 (in words) [8]: substantially less effective | inhibition of replication of MHV (in words) (MHV): did not inhibit the replication | inhibition of replication of MNV-1 (in words) (MNV-1): did not inhibit the replication | non-specific cytotoxicity: none shown up to this concentration [9]: > 500 µM | inhibition of replication of FCV (in words) (FCV): did not inhibit the replication

Source: patent US9474759B2 (priority 2011, dated 2016)
